Data taken from patent EP4741386A1 (Jiangsu Yahong Meditech Co., Ltd., priority 2023, dated 2025).

Legend:
MDA-MB-436 = assay: CTG experiment for cell viability (CellTiter-Glo, 96-well plate, 7 days); assay type: cell-based; conditions: Homo sapiens, MDA-MB-436, 168 h, MDA-MB-436 cells, 7 days culture with compound
Summary of the method: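 Viability was read by CellTiter-Glo luminescence after 10 min at room temperature, once the compound-containing medium had been replaced with PBS. Before that, MDA-MB-436 cells grown in DMEM were exposed to compounds for 7 days at 37°C. Curve fitting followed the enzyme assay method.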

[1] = biological target: T1, Recombinant human His6-USP1/His6-UAF1 complex protein (Homo sapiens, UniProt O94782); assay: In vitro inhibitory activity against USP1 (Ubiquitin Rhodamine 110 fluorescence detection, 384-well plate); assay type: biochemical; conditions: Ub-Rho substrate, 1 hour pre-incubation, read after 30 minutes
T1 construct: His6; purchased R&D E-568-050
T1 sequence (O94782 whole entry): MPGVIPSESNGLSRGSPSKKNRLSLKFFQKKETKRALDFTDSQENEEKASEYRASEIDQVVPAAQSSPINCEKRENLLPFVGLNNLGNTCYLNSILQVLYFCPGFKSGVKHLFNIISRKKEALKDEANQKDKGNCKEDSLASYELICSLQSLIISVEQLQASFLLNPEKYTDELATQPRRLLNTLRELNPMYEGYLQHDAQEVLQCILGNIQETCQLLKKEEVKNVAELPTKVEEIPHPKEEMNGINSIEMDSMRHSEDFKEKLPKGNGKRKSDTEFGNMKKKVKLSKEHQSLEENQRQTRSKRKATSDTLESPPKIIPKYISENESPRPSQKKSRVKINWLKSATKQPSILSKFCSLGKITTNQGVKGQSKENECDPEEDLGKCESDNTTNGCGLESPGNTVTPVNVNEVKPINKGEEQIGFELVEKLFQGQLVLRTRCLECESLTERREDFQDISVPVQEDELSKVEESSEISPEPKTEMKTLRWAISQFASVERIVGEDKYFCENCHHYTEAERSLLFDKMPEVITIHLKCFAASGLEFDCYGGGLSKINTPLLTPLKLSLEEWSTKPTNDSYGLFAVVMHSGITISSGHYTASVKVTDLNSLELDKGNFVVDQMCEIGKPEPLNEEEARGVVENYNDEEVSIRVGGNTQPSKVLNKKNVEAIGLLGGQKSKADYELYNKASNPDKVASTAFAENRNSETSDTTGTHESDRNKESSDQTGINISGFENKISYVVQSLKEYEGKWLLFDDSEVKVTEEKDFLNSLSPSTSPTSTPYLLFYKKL
T1 sequence (Q8TAF3 whole entry partner): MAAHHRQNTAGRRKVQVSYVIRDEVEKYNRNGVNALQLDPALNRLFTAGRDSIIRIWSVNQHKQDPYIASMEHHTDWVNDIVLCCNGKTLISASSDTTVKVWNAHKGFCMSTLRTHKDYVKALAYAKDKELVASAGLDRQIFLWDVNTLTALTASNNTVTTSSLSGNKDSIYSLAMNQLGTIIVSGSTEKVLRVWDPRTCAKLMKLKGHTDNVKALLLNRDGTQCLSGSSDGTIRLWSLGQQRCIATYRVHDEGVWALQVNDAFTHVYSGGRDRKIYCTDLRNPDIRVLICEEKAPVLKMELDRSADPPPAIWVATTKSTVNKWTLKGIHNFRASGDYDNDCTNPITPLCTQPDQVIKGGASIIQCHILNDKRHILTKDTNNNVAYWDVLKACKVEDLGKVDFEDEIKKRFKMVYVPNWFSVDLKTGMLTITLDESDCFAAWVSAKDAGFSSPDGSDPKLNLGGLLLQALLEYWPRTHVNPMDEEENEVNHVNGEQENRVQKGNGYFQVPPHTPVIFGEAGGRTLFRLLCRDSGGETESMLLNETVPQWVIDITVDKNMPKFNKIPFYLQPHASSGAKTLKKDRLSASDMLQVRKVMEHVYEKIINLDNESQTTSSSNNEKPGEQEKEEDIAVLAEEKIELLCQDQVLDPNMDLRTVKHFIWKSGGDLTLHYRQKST
Summary of the method: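 Compounds, kept as 50 mM DMSO stocks, were acoustically dispensed into modified Tris buffer. Inhibition of recombinant human His6-USP1/His6-UAF1 was read by fluorescence from cleavage of Ub-Rho110 substrate.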

Row | Compound | IC50 (MDA-MB-436) | IC50 [1]
1 | CC(C)n1ncc(Cl)c1-c1nc(NCc2ccc(-c3nc(C(F)(F)F)cn3C)cc2)c2occc2n1 [Example 167, 2-(4-Chloro-1-isopropyl-1H-pyrazol-5-yl)-N-(4-(1-methyl-4-(trifluoromethyl)-1H-imidazol-2-yl)benzyl)furo[3,2-d]pyrimidin-4-amine] | 2.9 nM | 0.45 nM
2 | COc1cnc(-c2ccccc2N(C)C)nc1NCc1ccc(-c2nc(C(F)(F)F)cn2C)cc1 [Example 159, 2-(2-(Dimethylamino)phenyl)-5-methoxy-N-(4-(1-methyl-4-(trifluoromethyl)-1H-imidazol-2-yl)benzyl)pyrimidin-4-amine] | 39.4 nM | 1.7 nM
3 | COc1cnc(-c2c(OC)cnn2C(C)C)nc1NCc1ccc(-c2nc(C(F)(F)F)cn2C)cc1 [Example 180, 2-(1-Isopropyl-4-methoxy-1H-pyrazol-5-yl)-5-methoxy-N-(4-(1-methyl-4-(trifluoromethyl)-1H-imidazol-2-yl)benzyl)pyrimidin-4-amine] | 123 nM | 15 nM
4 | [2H]C([2H])([2H])N(Cc1ccc(-c2nc(C(F)(F)F)cn2C2CC2)cc1)c1nc(-c2c(OC)ncnc2C2CC2)ncc1F [Example 128, 4'-Cyclopropyl-N-(4-(1-cyclopropyl-4-(trifluoromethyl)-1H-imidazol-2-yl)benzyl)-5-fluoro-6'-methoxy-N-(methyl-d3)-[2,5'-bipyrimidin]-4-amine] | 5.7 nM | 2.6 nM
5 | COc1cc(CNc2nc(-c3ccccc3C(C)C)nc3ccoc23)ccc1-c1nc(C(F)(F)F)cn1C [Example 82, 2-(2-Isopropylphenyl)-N-(3-methoxy-4-(1-methyl-4-(trifluoromethyl)-1H-imidazol-2-yl)benzyl)furo[3,2-d]pyrimidin-4-amine] | 278 nM | 1.7 nM
6 | COc1cnc(-c2c(OC)ncnc2C2CC2)nc1N(C)Cc1ccc(-c2nc(C(F)(F)F)cn2C)cc1 [Example 8, 4'-Cyclopropyl-5,6'-dimethoxy-N-methyl-N-(4-(1-methyl-4-(trifluoromethyl)-1H-imidazol-2-yl)benzyl)-[2,5'-bipyrimidin]-4-amine] | 2.3 nM | 1.4 nM
7 | COc1cnc(-c2c(Cl)cnn2C(C)C)nc1N(C)CC12CCC(c3nc(C(F)(F)F)cn3C)(CC1)OC2 [Example S17, 2-(4-Chloro-1-isopropyl-1H-pyrazol-5-yl)-5-methoxy-N-methyl-N-((1-(1-methyl-4-(trifluoromethyl)-1H-imidazol-2-yl)-2-oxabicyclo[2.2.2]oct-4-yl)methyl)pyrimidin-4-amine] | 35.9 nM | 6.1 nM
8 | COc1ncnc(C2CC2)c1-c1ncc(OC(F)F)c(NCC2CCN(c3nc(C(F)(F)F)cn3C)CC2)n1 [Example 133, 4'-Cyclopropyl-5-(difluoromethoxy)-6'-methoxy-N-((1-(1-methyl-4-(trifluoromethyl)-1H-imidazol-2-yl)piperidin-4-yl)methyl)-[2,5'-bipyrimidin]-4-amine] | 135 nM | 15 nM
9 | COc1cnc(-c2c(OC)ncnc2C2CC2)nc1NCc1ccc(-c2nc(C(F)(F)F)cn2CC(F)(F)F)cc1 [Example S7, 4'-Cyclopropyl-56'-dimethoxy-N-(4-(1-(2,2,2-trifluoroethyl)-4-(trifluoromethyl)-1H-imidazol-2-yl)benzyl)-[2,5'-bipyrimidin]-4-amine] | 17.1 nM | 12 nM
10 | CC(C)Oc1cnc(-c2ccccc2C(C)C)nc1NCC1CCN(c2nc(C(F)(F)F)cn2C)CC1 [Example 72, 5-Isopropoxy-2-(2-isopropylphenyl)-N-((1-(1-methyl-4-(trifluoromethyl)-1H-imidazol-2-yl)piperidin-4-yl)methyl)pyrimidin-4-amine] | 181 nM | 6.1 nM
11 | COc1cnc(-c2cccnc2C2CC2)nc1NCc1ccc(-n2nc(C(F)(F)F)cc2C)cc1 [Example 154, 2-(2-Cyclopropylpyridin-3-yl)-5-methoxy-N-(4-(5-methyl-3-(trifluoromethyl)-1H-pyrazol-1-yl)benzyl)pyrimidin-4-amine] | 7.3 nM | 6.2 nM
12 | COc1cnc(-c2c(OC)ncnc2C2CC2)nc1NCc1ccc(-c2ccccn2)cc1 [Example 94, 4'-Cyclopropyl-5,6'-dimethoxy-N-(4-(pyridin-2-yl)benzyl)-[2,5'-bipyrimidin]-4-amine] | 275 nM | 6.5 nM
13 | COc1cnn(C2CC2)c1-c1ncc(OC(F)F)c(NCc2ccc(-c3nc(C(F)(F)F)cn3C)cc2)n1 [Example 185, 2-(1-Cyclopropyl-4-methoxy-1H-pyrazol-5-yl)-5-(difluoromethoxy)-N-(4-(1-methyl-4-(trifluoromethyl)-1H-imidazol-2-yl)benzyl)pyrimidin-4-amine] | 120 nM | 9.8 nM
14 | COc1cnc(-c2c(C)cnn2C(C)C)nc1N(C)Cc1ccc(-n2nc(C(F)(F)F)cc2C)cc1 [Example 201, 2-(1-Isopropyl-4-methyl-1H-pyrazol-5-yl)-5-methoxy-N-methyl-N-(4-(5-methyl-3-(trifluoromethyl)-1H-pyrazol-1-yl)benzyl)pyrimidin-4-amine] | 40.5 nM | 12 nM
15 | [2H]C([2H])([2H])N(C[C@H]1CC[C@H](c2nc(C(F)(F)F)cn2C)CC1)c1nc(-c2c(OC)ncnc2C2CC2)ncc1OC [Example S22, 4'-Cyclopropyl-5,6'-dimethoxy-N-(methyl-d3)-N-(((1r,4r)-4-(1-methyl-4-(trifluoromethyl)-1H-imidazol-2-yl)cyclohexyl)methyl)-[2,5'-bipyrimidin]-4-amine] | 4.5 nM | 4.6 nM
16 | COc1cnc(-c2ccccc2C(C)C)nc1NCc1ccc(-c2nccn3ccnc23)cc1 [Example 11, N-(4-(Imidazo[1,2-a]pyrazin-8-yl)benzyl)-2-(2-isopropylphenyl)-5-methoxypyrimidin-4-amine] | 751 nM | 22 nM
17 | COc1cnc(-c2c(OC)ncnc2C2CC2)nc1NCC12CCC(c3nc(C(F)(F)F)cn3C)(CC1)CC2 [Example 104, 4'-Cyclopropyl-5,6'-dimethoxy-N-((4-(1-methyl-4-(trifluoromethyl)-1H-imidazol-2-yl)bicyclo[2.2.2]octan-1-yl)methyl)-[2,5'-bipyrimidin]-4-amine] | 13.7 nM | 8.8 nM
18 | COc1cnc(-c2ccccc2C(C)C)nc1NCC1CCC(c2ccccn2)CC1 (stereo not shown) [Example 63, 2-(2-Isopropylphenyl)-5-methoxy-N-((4-(pyridin-2-yl)cyclohexyl)methyl)pyrimidin-4-amine] | 30 nM | 3.3 nM
19 | Cc1cc(C(F)(F)F)nn1-c1ccc(CNc2nc(-c3c(Cl)cnn3C(C)C)nc3ccoc23)cc1 [Example 168, 2-(4-Chloro-1-isopropyl-1H-pyrazol-5-yl)-N-(4-(5-methyl-3-(trifluoromethyl)-1H-pyrazol-1-yl)benzyl)furo[3,2-d]pyrimidin-4-amine] | 5.1 nM | 1.2 nM
20 | [2H]C([2H])([2H])N(Cc1ccc(-c2nc(C(F)(F)F)cn2CF)cc1)c1nc(-c2c(OC)ncnc2C2CC2)ncc1F [Example 130, 4'-Cyclopropyl-5-fluoro-N-(4-(1-(fluoromethyl)-4-(trifluoromethyl)-1H-imidazol-2-yl)benzyl)-6'-methoxy-N-(methyl-d3)-[2,5'-bipyrimidin]-4-amine] | 45.6 nM | 19 nM
